Key:
FgPT1 [1] = biological target: T1, FgPT1 (Fusarium globosum, UniProt A0A8H5XPW9); assay: HPLC product formation, Michaelis-Menten fit; type: biochemical; conditions: 1 mM DMAPP, 1 mM BaCl2, 100 mM Tris-HCl pH 7.5, 37 °C, apparent
T1 construct: gene FGLOB1_12591; full length, 426 residues, N-terminal His6 tag (pET-28a, synthetic gene), E. coli BL21(DE3), Ni-NTA
Excerpt: HPLC product formation, Michaelis-Menten fit on FgPT1

FgPT1 [2] = biological target: T1, FgPT1; assay: HPLC / LC-MS product detection; type: biochemical; conditions: prenyl donor; with flavanone acceptor, metal ion (Ba2+ best), Tris-HCl pH 7.5, 37 °C

T1 sequence (A0A8H5XPW9 entry or part of it): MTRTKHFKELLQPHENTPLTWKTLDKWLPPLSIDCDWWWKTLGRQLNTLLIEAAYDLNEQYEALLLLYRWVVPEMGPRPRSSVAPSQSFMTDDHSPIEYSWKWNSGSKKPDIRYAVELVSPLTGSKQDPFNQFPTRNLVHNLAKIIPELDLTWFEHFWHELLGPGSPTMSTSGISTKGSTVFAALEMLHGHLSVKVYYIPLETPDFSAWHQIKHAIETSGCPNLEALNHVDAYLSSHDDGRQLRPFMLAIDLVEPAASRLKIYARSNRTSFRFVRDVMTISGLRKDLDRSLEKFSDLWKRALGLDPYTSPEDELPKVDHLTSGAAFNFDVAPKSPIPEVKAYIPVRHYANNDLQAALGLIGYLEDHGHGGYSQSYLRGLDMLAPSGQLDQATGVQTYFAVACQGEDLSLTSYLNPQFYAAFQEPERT

**Q.** How did the “KM (mM)” value (FgPT1 [1]) turn out when O=C1C[C@@H](c2ccc(O)cc2)Oc2cc(O)ccc21 [compound 4, Liquiritigenin] was run?
**A.** 0.93 ± (0.161) mM

**Q.** For O=C1C[C@@H](c2ccc(O)c(O)c2)Oc2cc(O)cc(O)c21 [compound 3, Eriodictyol], which “KM (mM)” value (FgPT1 [1]) is on record?
**A.** 0.23 ± (0.026) mM

**Q.** For O=C1C[C@@H](c2ccc(O)cc2)Oc2cc(O)cc(O)c21 [compound 1, Naringenin], which “KM (mM)” value (FgPT1 [1]) is on record?
**A.** 0.26 ± (0.077) mM

**Q.** How did the “HPLC / LC-MS product detection” value (FgPT1 [2]) turn out when CC(C)=CCOP(=O)(O)OP(=O)(O)O [DMAPP] was run?
**A.** using DMAPP as the prenyl donor revealed catalytic activity exclusively toward six flavanones

**Q.** O=C1CC(c2ccccc2)Oc2cc(O)cc(O)c21 (racemic) [compound 5, Rac-pinocembrin] was tested. Which “KM (mM)” value (FgPT1 [1]; racemic substrate) did it give?
**A.** 0.14 ± (0.037) mM

**Q.** O=C1c2c(O)cc(O)cc2OCC1c1ccc(O)cc1 (stereo not shown) [compound 6, Dihydrogenistein] was tested. Which “KM (mM)” value (FgPT1 [1]) did it give?
**A.** 0.14 ± (0.026) mM

**Q.** COc1ccc([C@@H]2CC(=O)c3c(O)cc(O)cc3O2)cc1O [compound 2, Hesperetin] was tested. Which “KM (mM)” value (FgPT1 [1]) did it give?
**A.** 0.94 ± (0.075) mM

From article PMC11990136, “Prenylation of Flavanones by an Aromatic Prenyltransferase from Fusarium globosum” (Molecules, 2025)
